Data reported in the NIST ThermoML archive (doi:10.1021/je0601208).
± gives the expanded uncertainty stated by the source.

Key:
[1] = refractive index (Na D-line) (dimensionless); xn = mol fraction of the nth substance listed; conditions: 100.5 kPa, Liquid, Standard Abbe refractometry
[2] = xn = mol fraction of the nth substance listed

CCOC(=O)Cc1ccccc1 [ethyl phenylacetate] + CCO
Conditions	refractive index, 288.15 K	refractive index, 298.15 K	refractive index, 308.15 K	refractive index, 318.15 K	surface tension liquid-gas, 288.15 K [mN/m]	surface tension liquid-gas, 298.15 K [mN/m]	surface tension liquid-gas, 308.15 K [mN/m]	surface tension liquid-gas, 318.15 K [mN/m]
[1], x1 = 0.05	1.38109 ± 0.00032	1.37693 ± 0.00032	1.37265 ± 0.00032	1.36852 ± 0.00032	–	–	–	–
[1], x1 = 0.1	1.39604 ± 0.00032	1.3918 ± 0.00032	1.38745 ± 0.00032	1.38323 ± 0.00032	–	–	–	–
[1], x1 = 0.15	1.4087 ± 0.00032	1.40441 ± 0.00032	1.40003 ± 0.00032	1.39573 ± 0.00032	–	–	–	–
[1], x1 = 0.2	1.41969 ± 0.00032	1.41536 ± 0.00032	1.41093 ± 0.00032	1.40653 ± 0.00032	–	–	–	–
[1], x1 = 0.25	1.42932 ± 0.00032	1.42491 ± 0.00032	1.42047 ± 0.00032	1.41597 ± 0.00032	–	–	–	–
[1], x1 = 0.3	1.4379 ± 0.00032	1.43347 ± 0.00032	1.42899 ± 0.00032	1.42447 ± 0.00032	–	–	–	–
[1], x1 = 0.35	1.44556 ± 0.00032	1.44111 ± 0.00032	1.43661 ± 0.00032	1.43203 ± 0.00032	–	–	–	–
[1], x1 = 0.4	1.45242 ± 0.00032	1.44792 ± 0.00032	1.44342 ± 0.00032	1.43878 ± 0.00032	–	–	–	–
[1], x1 = 0.45	1.45856 ± 0.00032	1.45402 ± 0.00032	1.44951 ± 0.00032	1.44484 ± 0.00032	–	–	–	–
[1], x1 = 0.5	1.46406 ± 0.00032	1.45953 ± 0.00032	1.455 ± 0.00032	1.4503 ± 0.00032	–	–	–	–
[1], x1 = 0.55	1.46909 ± 0.00032	1.46454 ± 0.00032	1.45999 ± 0.00032	1.45524 ± 0.00032	–	–	–	–
[1], x1 = 0.6	1.47365 ± 0.00032	1.46908 ± 0.00032	1.46451 ± 0.00032	1.45975 ± 0.00032	–	–	–	–
[1], x1 = 0.65	1.47785 ± 0.00032	1.47324 ± 0.00032	1.46869 ± 0.00033	1.46391 ± 0.00033	–	–	–	–
[1], x1 = 0.7	1.48174 ± 0.00033	1.47713 ± 0.00033	1.47255 ± 0.00033	1.46775 ± 0.00033	–	–	–	–
[1], x1 = 0.75	1.48536 ± 0.00033	1.48072 ± 0.00033	1.47613 ± 0.00033	1.47132 ± 0.00033	–	–	–	–
[1], x1 = 0.8	1.48865 ± 0.00033	1.48403 ± 0.00033	1.47943 ± 0.00033	1.47458 ± 0.00033	–	–	–	–
[1], x1 = 0.85	1.4917 ± 0.00033	1.48707 ± 0.00033	1.48248 ± 0.00033	1.47763 ± 0.00033	–	–	–	–
[1], x1 = 0.9	1.49461 ± 0.00033	1.48996 ± 0.00033	1.48539 ± 0.00033	1.48053 ± 0.00033	–	–	–	–
[1], x1 = 0.95	1.4973 ± 0.00033	1.49266 ± 0.00033	1.4881 ± 0.00033	1.48323 ± 0.00033	–	–	–	–
[1], x1 = 1	1.49971 ± 0.00034	1.49513 ± 0.00034	1.49063 ± 0.00034	1.48583 ± 0.00034	–	–	–	–
[2], x1 = 0.05	–	–	–	–	23.9 ± 0.6	23.1 ± 0.6	22.2 ± 0.6	21.2 ± 0.6
[2], x1 = 0.1	–	–	–	–	24.6 ± 0.6	23.7 ± 0.6	22.8 ± 0.6	21.8 ± 0.6
[2], x1 = 0.15	–	–	–	–	25.2 ± 0.6	24.3 ± 0.6	23.4 ± 0.6	22.4 ± 0.6
[2], x1 = 0.2	–	–	–	–	25.9 ± 0.6	24.9 ± 0.6	23.9 ± 0.6	22.9 ± 0.6
[2], x1 = 0.25	–	–	–	–	26.5 ± 0.6	25.5 ± 0.6	24.5 ± 0.6	23.5 ± 0.6
[2], x1 = 0.3	–	–	–	–	27.2 ± 0.6	26.1 ± 0.6	25.1 ± 0.6	24.1 ± 0.6
[2], x1 = 0.35	–	–	–	–	27.8 ± 0.6	26.7 ± 0.6	25.7 ± 0.6	24.7 ± 0.6
[2], x1 = 0.4	–	–	–	–	28.4 ± 0.6	27.3 ± 0.6	26.2 ± 0.6	25.4 ± 0.6
[2], x1 = 0.45	–	–	–	–	29.1 ± 0.7	27.9 ± 0.6	26.8 ± 0.6	26 ± 0.6
[2], x1 = 0.5	–	–	–	–	29.7 ± 0.7	28.5 ± 0.6	27.4 ± 0.6	26.6 ± 0.6
[2], x1 = 0.55	–	–	–	–	30.3 ± 0.7	29.1 ± 0.7	28 ± 0.6	27.2 ± 0.6
[2], x1 = 0.6	–	–	–	–	31 ± 0.7	29.7 ± 0.7	28.6 ± 0.6	27.8 ± 0.6
[2], x1 = 0.65	–	–	–	–	31.6 ± 0.7	30.3 ± 0.7	29.2 ± 0.7	28.4 ± 0.6
[2], x1 = 0.7	–	–	–	–	32.2 ± 0.7	30.9 ± 0.7	29.8 ± 0.7	29 ± 0.7
[2], x1 = 0.75	–	–	–	–	32.8 ± 0.7	31.6 ± 0.7	30.4 ± 0.7	29.5 ± 0.7
[2], x1 = 0.8	–	–	–	–	33.5 ± 0.7	32.1 ± 0.7	31 ± 0.7	30.1 ± 0.7
[2], x1 = 0.85	–	–	–	–	34.1 ± 0.7	32.8 ± 0.7	31.6 ± 0.7	30.7 ± 0.7
[2], x1 = 0.9	–	–	–	–	34.7 ± 0.7	33.4 ± 0.7	32.2 ± 0.7	31.4 ± 0.7
[2], x1 = 0.95	–	–	–	–	35.3 ± 0.7	33.9 ± 0.7	32.8 ± 0.7	32 ± 0.7
[2], x1 = 1	–	–	–	–	35.9 ± 0.7	34.6 ± 0.7	33.5 ± 0.7	32.8 ± 0.7

CCCCCC(=O)OCC [ethyl hexanoate] + CCO
Conditions	refractive index, 288.15 K	refractive index, 298.15 K	refractive index, 308.15 K	refractive index, 318.15 K	surface tension liquid-gas, 288.15 K [mN/m]	surface tension liquid-gas, 298.15 K [mN/m]	surface tension liquid-gas, 308.15 K [mN/m]	surface tension liquid-gas, 318.15 K [mN/m]
[1], x1 = 0.05	1.36942 ± 0.00031	1.36535 ± 0.00031	1.36109 ± 0.00031	1.35703 ± 0.00031	–	–	–	–
[1], x1 = 0.1	1.37451 ± 0.00031	1.37034 ± 0.00031	1.36602 ± 0.00031	1.36185 ± 0.00031	–	–	–	–
[1], x1 = 0.15	1.37883 ± 0.00031	1.37461 ± 0.00031	1.37024 ± 0.00031	1.36601 ± 0.00031	–	–	–	–
[1], x1 = 0.2	1.38253 ± 0.00031	1.37826 ± 0.00031	1.37388 ± 0.00031	1.3696 ± 0.00031	–	–	–	–
[1], x1 = 0.25	1.38577 ± 0.00031	1.38146 ± 0.00031	1.37706 ± 0.00031	1.37274 ± 0.00031	–	–	–	–
[1], x1 = 0.3	1.38864 ± 0.00031	1.38429 ± 0.00031	1.37986 ± 0.00031	1.3755 ± 0.00031	–	–	–	–
[1], x1 = 0.35	1.39119 ± 0.00031	1.38681 ± 0.00032	1.38236 ± 0.00032	1.37795 ± 0.00032	–	–	–	–
[1], x1 = 0.4	1.39347 ± 0.00032	1.38907 ± 0.00032	1.3846 ± 0.00032	1.38016 ± 0.00032	–	–	–	–
[1], x1 = 0.45	1.39553 ± 0.00032	1.39111 ± 0.00032	1.38663 ± 0.00032	1.38216 ± 0.00032	–	–	–	–
[1], x1 = 0.5	1.3974 ± 0.00032	1.39296 ± 0.00032	1.38847 ± 0.00032	1.38398 ± 0.00032	–	–	–	–
[1], x1 = 0.55	1.3991 ± 0.00032	1.39465 ± 0.00032	1.39016 ± 0.00032	1.38564 ± 0.00032	–	–	–	–
[1], x1 = 0.6	1.40066 ± 0.00032	1.3962 ± 0.00032	1.3917 ± 0.00032	1.38716 ± 0.00032	–	–	–	–
[1], x1 = 0.65	1.4021 ± 0.00032	1.39763 ± 0.00032	1.39312 ± 0.00032	1.38857 ± 0.00032	–	–	–	–
[1], x1 = 0.7	1.40343 ± 0.00032	1.39895 ± 0.00032	1.39444 ± 0.00032	1.38988 ± 0.00032	–	–	–	–
[1], x1 = 0.75	1.40466 ± 0.00032	1.40019 ± 0.00032	1.39568 ± 0.00032	1.39111 ± 0.00032	–	–	–	–
[1], x1 = 0.8	1.40579 ± 0.00032	1.40133 ± 0.00032	1.39682 ± 0.00032	1.39225 ± 0.00032	–	–	–	–
[1], x1 = 0.85	1.40684 ± 0.00032	1.40238 ± 0.00032	1.39787 ± 0.00032	1.3933 ± 0.00032	–	–	–	–
[1], x1 = 0.9	1.4078 ± 0.00032	1.40334 ± 0.00032	1.39882 ± 0.00032	1.39426 ± 0.00032	–	–	–	–
[1], x1 = 0.95	1.40868 ± 0.00032	1.40422 ± 0.00032	1.39972 ± 0.00032	1.39515 ± 0.00032	–	–	–	–
[1], x1 = 1	1.4095 ± 0.00032	1.40504 ± 0.00032	1.40055 ± 0.00032	1.39597 ± 0.00032	–	–	–	–
[2], x1 = 0.05	–	–	–	–	23.4 ± 0.6	22.7 ± 0.6	21.8 ± 0.6	20.9 ± 0.6
[2], x1 = 0.1	–	–	–	–	23.8 ± 0.6	23 ± 0.6	22.1 ± 0.6	21.2 ± 0.6
[2], x1 = 0.15	–	–	–	–	24.1 ± 0.6	23.2 ± 0.6	22.4 ± 0.6	21.5 ± 0.6
[2], x1 = 0.2	–	–	–	–	24.3 ± 0.6	23.5 ± 0.6	22.6 ± 0.6	21.7 ± 0.6
[2], x1 = 0.25	–	–	–	–	24.5 ± 0.6	23.7 ± 0.6	22.8 ± 0.6	21.9 ± 0.6
[2], x1 = 0.3	–	–	–	–	24.7 ± 0.6	23.9 ± 0.6	23 ± 0.6	22 ± 0.6
[2], x1 = 0.35	–	–	–	–	24.9 ± 0.6	24 ± 0.6	23.1 ± 0.6	22.2 ± 0.6
[2], x1 = 0.4	–	–	–	–	25.1 ± 0.6	24.2 ± 0.6	23.3 ± 0.6	22.3 ± 0.6
[2], x1 = 0.45	–	–	–	–	25.2 ± 0.6	24.3 ± 0.6	23.4 ± 0.6	22.5 ± 0.6
[2], x1 = 0.5	–	–	–	–	25.4 ± 0.6	24.4 ± 0.6	23.5 ± 0.6	22.6 ± 0.6
[2], x1 = 0.55	–	–	–	–	25.5 ± 0.6	24.5 ± 0.6	23.6 ± 0.6	22.7 ± 0.6
[2], x1 = 0.6	–	–	–	–	25.6 ± 0.6	24.6 ± 0.6	23.7 ± 0.6	22.8 ± 0.6
[2], x1 = 0.65	–	–	–	–	25.7 ± 0.6	24.7 ± 0.6	23.8 ± 0.6	22.9 ± 0.6
[2], x1 = 0.7	–	–	–	–	25.8 ± 0.6	24.9 ± 0.6	23.9 ± 0.6	23 ± 0.6
[2], x1 = 0.75	–	–	–	–	25.9 ± 0.6	25 ± 0.6	24 ± 0.6	23.1 ± 0.6
[2], x1 = 0.8	–	–	–	–	26 ± 0.6	25.1 ± 0.6	24.1 ± 0.6	23.2 ± 0.6
[2], x1 = 0.85	–	–	–	–	26.1 ± 0.6	25.1 ± 0.6	24.2 ± 0.6	23.3 ± 0.6
[2], x1 = 0.9	–	–	–	–	26.2 ± 0.6	25.2 ± 0.6	24.3 ± 0.6	23.4 ± 0.6
[2], x1 = 0.95	–	–	–	–	26.3 ± 0.6	25.3 ± 0.6	24.4 ± 0.6	23.5 ± 0.6
[2], x1 = 1	–	–	–	–	26.4 ± 0.6	25.4 ± 0.6	24.5 ± 0.6	23.6 ± 0.6
